target: T1, chimeric human H3 receptor (Homo sapiens, UniProt Q9Y5N1, E19D); assay: Chimeric human H3 receptor GTP binding assay (agonist-stimulated GTP-gamma35S binding, Example 7); assay type: biochemical; settings: "*" in Ki of Table II; assay of Example 7; read-out: Ki
T1 construct: made in house; host or cells: Sf9 insect cells (baculovirus infection); P2 membrane preparation
In short: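 Sf9 membranes co-expressing the chimeric receptor and heterotrimeric G-protein subunits, 35 μg protein per tube, in pH 7.4 Tris buffer with 10 μM GDP. Test compounds at 10^−10 to 10^−6 M with 1 μM histamine, 60 min at room temperature. Filter-bound GTP-gamma^35S read by scintillation; IC50 from non-linear regression of dose-response curves.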

T1 sequence (Q9Y5N1 with tags, fused parts or gaps E19D): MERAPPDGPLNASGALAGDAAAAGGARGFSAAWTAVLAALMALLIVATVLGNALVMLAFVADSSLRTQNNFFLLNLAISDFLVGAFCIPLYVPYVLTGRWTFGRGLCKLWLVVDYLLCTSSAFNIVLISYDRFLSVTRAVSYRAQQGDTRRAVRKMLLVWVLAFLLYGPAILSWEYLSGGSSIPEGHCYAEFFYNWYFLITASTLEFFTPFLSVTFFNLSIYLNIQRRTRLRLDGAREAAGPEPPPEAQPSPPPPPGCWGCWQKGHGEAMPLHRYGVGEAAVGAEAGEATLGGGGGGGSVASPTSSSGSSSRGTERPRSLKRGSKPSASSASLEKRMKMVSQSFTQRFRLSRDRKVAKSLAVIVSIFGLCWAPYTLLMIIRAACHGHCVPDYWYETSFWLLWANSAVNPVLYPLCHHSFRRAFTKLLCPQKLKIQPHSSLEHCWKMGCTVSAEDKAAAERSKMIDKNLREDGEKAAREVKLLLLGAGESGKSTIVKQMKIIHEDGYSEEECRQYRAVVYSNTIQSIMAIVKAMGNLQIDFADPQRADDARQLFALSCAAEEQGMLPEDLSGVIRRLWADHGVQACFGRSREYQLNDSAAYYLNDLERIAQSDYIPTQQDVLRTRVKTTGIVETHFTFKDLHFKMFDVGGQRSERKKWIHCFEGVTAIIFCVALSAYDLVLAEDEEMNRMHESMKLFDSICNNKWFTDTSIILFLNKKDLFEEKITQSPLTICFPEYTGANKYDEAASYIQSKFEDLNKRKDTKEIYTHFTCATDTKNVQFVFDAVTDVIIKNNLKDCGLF

Ki [nM] | Structure (SMILES)
< 1000 | CCCN(CCC)C1CCN(CC(=O)N2CCN(C(C)CC)CC2)CC1 (stereo not shown) [Compound 450, 1-[2-(4-sec-butylpiperazin-1-yl)-2-oxoethyl]-N,N-dipropylpiperidin-4-amine]
< 1000 | O=C(CN1CCN(c2ccc(-c3ccccc3)cc2)CC1)N1CCN(C2CCC2)CC1 [Compound 494, 1-biphenyl-4-yl-4-[2-(4-cyclobutylpiperazin-1-yl)-2-oxoethyl]piperazine]

same assay, conditions: Table II "Ki", symbol "*": Ki in the assay of Example 7; read-out: Ki

Ki [nM] | Structure (SMILES)
< 1000 | O=C(OCC(=O)N1CCN(C2CCC2)CC1)N1C=CC2(CC1)c1ccccc1C(=O)N2Cc1ccccc1 (stereo not shown) [Compound 906, 2-(4-cyclobutylpiperazin-1-yl)-2-oxoethyl 2-benzyl-3-oxo-2,2′,3,3′-tetrahydro-1′H-spiro[isoindole-1,4′-pyridine]-1′-carboxylate]
< 1000 | CCC(C)N1CCN(C(=O)CN2CCN(c3cc(C)ccc3C)CC2)CC1 (stereo not shown) [Compound 864, 1-sec-butyl-4-{[4-(2,5-dimethylphenyl)piperazin-1-yl]acetyl}piperazine]
< 1000 | O=C(CN1CCN(C(=O)C2CCCO2)CC1)N1CCN(C2CCC2)CC1 (stereo not shown) [Compound 801, 1-cyclobutyl-4-{[4-(tetrahydrofuran-2-ylcarbonyl)piperazin-1-yl]acetyl}piperazine]
< 1000 | COc1ccc(N2CCN(CC(=O)N3CCN(C4CCCC4)CC3)CC2)cc1OC [Compound 836, 1-cyclopentyl-4-{[4-(3,4-dimethoxyphenyl)piperazin-1-yl]acetyl}piperazine]

same assay, conditions: Table II, "*" in Ki; assay of Example 7; read-out: Ki

Ki [nM] | Structure (SMILES)
< 1000 | O=C(CN1CCN(c2ccc(C(=O)N3CCC(F)CC3)cc2)CC1)N1CCN(C2CCC2)CC1 [Compound 648, 1-cyclobutyl-4-[(4-{4-[(4-fluoropiperidin-1-yl)carbonyl]phenyl}piperazin-1-yl)acetyl]piperazine]
< 1000 | CCc1cccc(-c2ccc(N3CCN(CC(=O)N4CCN(C5CCC5)CC4)CC3)cc2)c1 [Compound 747, 1-cyclobutyl-4-{[4-(3′-ethylbiphenyl-4-yl)piperazin-1-yl]acetyl}piperazine]
< 1000 | O=C(CN1CCN(c2cccc(C(=O)N3CC=CCC3)c2)CC1)N1CCN(C2CCC2)CC1 [Compound 583]
< 1000 | COC[C@H]1CCCN1C(=O)c1cccc(N2CCN(CC(=O)N3CCN(C4CCC4)CC3)CC2)c1 [Compound 744, 1-cyclobutyl-4-{[4-(3-{[(2R)-2-(methoxymethyl)pyrrolidin-1-yl]car-bonyl}phenyl)piperazin-1-yl]acetyl}piperazine]
< 1000 | O=C(CN1CCN(c2ccc(-c3cccc(C(F)(F)F)c3)cc2)CC1)N1CCN(C2CCC2)CC1 [Compound 589, 1-cyclobutyl-4-({4-[3′-(trifluoromethyl)biphenyl-4-yl]piperazin-1-yl}acetyl)piperazine]
< 1000 | O=C(CN1CCN(c2ccc(C(=O)N3CC=CCC3)cc2)CC1)N1CCN(C2CCC2)CC1 [Compound 593, 1-cyclobutyl-4-({4-[4-(3,6-dihydropyridin-1(2H)-ylcarbonyl)phenyl]piperazin-1-yl}acetyl)piperazine]

same assay, conditions: Table II; assay of Example 7; "*" in Ki; read-out: Ki

Structure (SMILES) | Ki [nM]
O=C(CN1CCN(c2cnc(Br)cn2)CC1)N1CCN(C2CCC2)CC1 [Compound 983, 2-bromo-5-{4-[2-(4-cyclobutylpiperazin-1-yl)-2-oxoethyl]piperazin-1-yl}pyrazine] | < 1000
COc1cccc(OC)c1-c1cnc(N2CCN(CC(=O)N3CCN(C4CCC4)CC3)CC2)cn1 [Compound 970, 2-{4-[2-(4-cyclobutylpiperazin-1-yl)-2-oxoethyl]piperazin-1-yl}-5-(2,6-dimethoxyphenyl) pyrazine] | < 1000
O=C(CN1CCN(c2ccc(-c3ccncc3)nn2)CC1)N1CCN(C2CCC2)CC1 [Compound 1000, 3-{4-[2-(4-cyclobutylpiperazin-1-yl)-2-oxoethyl]piperazin-1-yl}-6-pyridin-4-ylpyridazine] | < 1000
O=C(CN1CCN(c2ccc(-c3cccc(C(F)(F)F)c3)nn2)CC1)N1CCN(C2CCC2)CC1 [Compound 1063, 3-{4-[2-(4-cyclobutylpiperazin-1-yl)-2-oxoethyl]piperazin-1-yl}-6-[3-(trifluoromethyl)phenyl] pyridazine] | < 1000
COc1ccc(C(C)C)cc1-c1ccc(N2CCN(CC(=O)N3CCN(C4CCC4)CC3)CC2)nn1 [Compound 1040, 3-{4-[2-(4-cyclobutylpiperazin-1-yl)-2-oxoethyl]piperazin-1-yl}-6-(5-isopropyl-2-methoxyphenyl) pyridazine] | < 1000
O=C(CN1CCN(c2ccc(-c3ccc4c(c3)OCO4)nn2)CC1)N1CCN(C2CCC2)CC1 [Compound 986, 3-(1,3-benzodioxol-5-yl)-6-{4-[2-(4-cyclobutylpiperazin-1-yl)-2-oxoethyl]piperazin-1-yl}pyridazine] | < 1000
O=C(CN1CCN(c2ncc(F)cn2)CC1)N1CCN(C2CCCC2)CC1 [Compound 977, 2-{4-[2-(4-cyclopentylpiperazin-1-yl)-2-oxoethyl]piperazin-1-yl}-5-fluoropyrimidine] | < 1000
CCC(C)N1CCN(C(=O)CN2CCN(c3cccc(C)c3)C(C)C2)CC1 (stereo not shown) [Compound 1114, 4-[2-(4-sec-butylpiperazin-1-yl)-2-oxoethyl]-2-methyl-1-(3-methylphenyl)piperazine] | < 1000

Next, values leading:

Ki [nM] | Structure (SMILES)
< 1000 | O=C(NCC1CC1)c1cccc(N2CCN(CC(=O)N3CCN(C4CCC4)CC3)CC2)c1 [Compound 1073, 3-{4-[2-(4-cyclobutylpiperazin-1-yl)-2-oxoethyl]piperazin-1-yl}-N-(cyclopropylmethyl) benzamide]
< 1000 | CC(C)CNC(=O)c1cccc(N2CCN(CC(=O)N3CCN(C4CCC4)CC3)CC2)c1 [Compound 1074, 3-{4-[2-(4-cyclobutylpiperazin-1-yl)-2-oxoethyl]piperazin-1-yl}-N-isobutylbenzamide]
< 1000 | CC(C)CCNC(=O)c1ccc(N2CCN(CC(=O)N3CCN(C4CCC4)CC3)CC2)cc1 [Compound 1136, 4-{4-[2-(4-cyclobutylpiperazin-1-yl)-2-oxoethyl]piperazin-1-yl}-N-(3-methylbutyl)benzamide]

same assay, conditions: assay of Example 7; "*" in Ki of Table II; read-out: Ki

Structure (SMILES) | Ki [nM]
CC(C)CCC(=O)NC1CCN(CC(=O)N2CCN(C3CCC3)CC2)C1 (stereo not shown) [Compound 1247, N-{1-[2-(4-cyclobutylpiperazin-1-yl)-2-oxoethyl]pyrrolidin-3-yl}-4-methylpentanamide] | < 1000
O=C(NC1CCCCCC1)c1ccc(N2CCN(CC(=O)N3CCN(C4CCC4)CC3)CC2)nc1 [Compound 1185, 6-{4-[2-(4-cyclobutylpiperazin-1-yl)-2-oxoethyl]piperazin-1-yl}-N-cycloheptylnicotinamide] | < 1000
CC(C)CN1CCN(C(=O)CN2CCN(c3ccc4c(c3)CCC4=O)CC2)CC1 [Compound 1162, 5-{4-[2-(4-isobutylpiperazin-1-yl)-2-oxoethyl]piperazin-1-yl}indan-1-one] | < 1000

More lines, now with the values ahead:

Ki [nM] | Structure (SMILES)
< 1000 | CCC(C)NC(=O)c1ccc(N2CCN(CC(=O)N3CCN(C4CCC4)CC3)CC2)cc1 (stereo not shown) [Compound 1204, N-(sec-butyl)-4-{4-[2-(4-cyclobutylpiperazin-1-yl)-2-oxoethyl]piperazin-1-yl}benzamide]
< 1000 | O=C1OCc2cc(N3CCN(CC(=O)N4CCN(C5CCC5)CC4)CC3)ccc21 [Compound 1156, 5-{4-[2-(4-cyclobutylpiperazin-1-yl)-2-oxoethyl]piperazin-1-yl}-2-benzofuran-1(3H)-one]
< 1000 | O=C1OCc2cc(N3CCN(CC(=O)N4CCN(C5CCCC5)CC4)CC3)ccc21 [Compound 1159, 5-{4-[2-(4-cyclopentylpiperazin-1-yl)-2-oxoethyl]piperazin-1-yl}-2-benzofuran-1(3H)-one]
< 1000 | CC(C)(C)CNC(=O)c1ccc(N2CCN(CC(=O)N3CCN(C4CCC4)CC3)CC2)cc1 [Compound 1145, 4-{4-[2-(4-cyclobutylpiperazin-1-yl)-2-oxoethyl]piperazin-1-yl}-N-(2,2-dimethylpropyl) benzamide]

same assay, conditions: assay of Example 7; symbol * in column headed Ki of Table II; read-out: Ki

Structure (SMILES) | Ki [nM]
O=C(CN1CCC2(CC1)C(=O)Nc1ccccc12)N1CCN(C2CCC2)CC1 [Compound 433, 1′-[2-(4-cyclobutylpiperazin-1-yl)-2-oxoethyl]spiro[indole-3,4′-piperidin]-2(1H)-one] | < 1000
COc1cc(N2CCN(CC(=O)N3CCN(C(C)C)CC3)CC2)ccc1Cl [Compound 347, 1-(4-chloro-3-methoxyphenyl)-4-[2-(4-isopropylpiperazin-1-yl)-2-oxoethyl]piperazine] | < 1000

The next lines start with the values.

Ki [nM] | Structure (SMILES)
< 1000 | Cc1ccc(F)c(-c2ccc(N3CCN(CC(=O)N4CCN(C5CCC5)CC4)CC3)cc2)c1Cl [Compound 273, 1-(2′-chloro-6′-fluoro-3′-methylbiphenyl-4-yl)-4-[2-(4-cyclobutylpiperazin-1-yl)-2-oxoethyl]piperazine]
< 1000 | CC(=O)c1cccc(-c2ccc(N3CCN(CC(=O)N4CCN(C5CCC5)CC4)CC3)cc2)c1 [Compound 308, 1-(4′-{4-[2-(4-cyclobutylpiperazin-1-yl)-2-oxoethyl]piperazin-1-yl}biphenyl-3-yl)ethanone]
< 1000 | CC(=O)c1ccc(N2CCN(CC(=O)N3CCN(C4CCC4)CC3)CC2)cc1 [Compound 315, 1-(4-{4-[2-(4-cyclobutylpiperazin-1-yl)-2-oxoethyl]piperazin-1-yl}phenyl)ethanone]
< 1000 | CC(C)C(=O)c1ccc(N2CCN(CC(=O)N3CCN(C4CCCC4)CC3)CC2)cc1 [Compound 325, 1-(4-{4-[2-(4-cyclopentylpiperazin-1-yl)-2-oxoethyl]piperazin-1-yl}phenyl)-2-methylpropan-1-one]
< 1000 | CC(=O)c1ccc(N2CCN(CC(=O)N3CCN(C4CCC4)CC3)[C@H](C)C2)cc1 [Compound 306, 1-(4-{4-[2-(4-cyclobutylpiperazin-1-yl)-2-oxoethyl]-3-methylpiperazin-1-yl}phenyl)ethanone]

Source: patent US7851474B2, “Dipiperazinyl ketones and related analogues” (Neurogen Corporation, priority 2005, dated 2010)
